Experimental data published in US20230298697A1, “DETERMINING VIABILITY AND TREATMENT OF DISEASE AGENTS” (priority 2022, published 2023).
Values after ≈ are worked out from the molar mass of the structure shown. Values joined by “and” are separate entries in the source; they are usually repeats but may differ in a detail not shown here. Identical values can stand only once.

Assays:
[1] = test system: Mycobacterium tuberculosis H37Rv; assay: Minimum Inhibitory Concentration 50 (MIC50) determination; assay type: cell-based; conditions: OD600 growth inhibition, 72 hours, 7H9-rich media
[2] = test system: Mycobacterium tuberculosis H37Rv; assay: Time-kill assay (CFU counting); assay type: cell-based; conditions: for CFUs /ml (10^6) h0: h0 (start of treatment); for Relative CFUs (log10) h72: h72 relative to h0
[3] = test system: Mycobacterium tuberculosis H37Rv; conditions: compared with other frontline drugs; stated as known; cited from earlier work

With `CO[C@H]1/C=C/O[C@@]2(C)Oc3c(C)c(O)c4c(O)c(c(/C=N/N5CCN(C)CC5)c(O)c4c3C2=O)NC(=O)/C(C)=C\C=C\[C@H](C)[C@H](O)[C@@H](C)[C@@H](O)[C@@H](C)[C@H](OC(C)=O)[C@@H]1C` [RIF, Rifampicin] the MIC50 [1] was 0.02 µg/mL (≈ 0.0243 µM).

With `COc1nc2ccc(Br)cc2cc1[C@@H](c1ccccc1)[C@@](O)(CCN(C)C)c1cccc2ccccc12` [BDQ, Bedaquiline] the MIC50 [1] was 1.61 µg/mL (≈ 2.9 µM), the “CFUs /ml (10^6) h0” value ([2]; 1.15 µg/ml) was 61 CFUs /ml (10^6) and 69 CFUs /ml (10^6) and 72 CFUs /ml (10^6) and the “CFUs /ml (10^6) h24” value ([2]; 1.15 µg/ml) was 91 CFUs /ml (10^6) and 96 CFUs /ml (10^6) and 101 CFUs /ml (10^6). The “CFUs /ml (10^6) h72” value ([2]; 1.15 µg/ml) was 352 CFUs /ml (10^6) and 362 CFUs /ml (10^6) and 346 CFUs /ml (10^6), the “Relative CFUs (log10) h72” value ([2]; 1.15 µg/ml) was 0.761 log10 and 0.72 log10 and 0.682 log10 and the “CFUs /ml (10^6) h0” value ([2]; 5.75 µg/ml) was 55 CFUs /ml (10^6) and 53 CFUs /ml (10^6) and 61 CFUs /ml (10^6). For the same molecule, the “CFUs /ml (10^6) h24” value ([2]; 5.75 µg/ml) was 97 CFUs /ml (10^6) and 81 CFUs /ml (10^6) and 100 CFUs /ml (10^6), the “CFUs /ml (10^6) h72” value ([2]; 5.75 µg/ml) was 115 CFUs /ml (10^6) and 132 CFUs /ml (10^6) and 96 CFUs /ml (10^6) and the “Relative CFUs (log10) h72” value ([2]; 5.75 µg/ml) was 0.32 log10 and 0.396 log10 and 0.197 log10. The “speed of killing of Mycobacterium tuberculosis” value [3] was “kills Mycobacterium tuberculosis relatively slowly”.

`O=[N+]([O-])c1cn2c(n1)OC[C@@H](OCc1ccc(OC(F)(F)F)cc1)C2` [PA824, Pretomanid] showed an MIC50 [1] of 0.15 µg/mL (≈ 0.418 µM).

In the case of `CC(C)/N=c1\cc2n(-c3ccc(Cl)cc3)c3ccccc3nc-2cc1Nc1ccc(Cl)cc1` [CFZ, Clofazimine], the “CFUs /ml (10^6) h0” value ([2]; 0.0728 µg/ml) is reported as 239 CFUs /ml (10^6) and 141 CFUs /ml (10^6) and 148 CFUs /ml (10^6), the “CFUs /ml (10^6) h24” value ([2]; 0.0728 µg/ml) is reported as 116 CFUs /ml (10^6) and 112 CFUs /ml (10^6) and 124 CFUs /ml (10^6) and the “CFUs /ml (10^6) h72” value ([2]; 0.0728 µg/ml) is reported as 176 CFUs /ml (10^6) and 192 CFUs /ml (10^6) and 207 CFUs /ml (10^6). For the same molecule, the “Relative CFUs (log10) h72” value ([2]; 0.0728 µg/ml) was -0.133 log10 and 0.134 log10 and 0.146 log10, the “CFUs /ml (10^6) h0” value ([2]; 0.728 µg/ml) was 158 CFUs /ml (10^6) and 182 CFUs /ml (10^6) and 101 CFUs /ml (10^6) and the “CFUs /ml (10^6) h24” value ([2]; 0.728 µg/ml) was 87 CFUs /ml (10^6) and 69 CFUs /ml (10^6) and 67 CFUs /ml (10^6). For the same molecule, the “CFUs /ml (10^6) h72” value ([2]; 0.728 µg/ml) was 41 CFUs /ml (10^6) and 26 CFUs /ml (10^6) and 52 CFUs /ml (10^6).

With `CC(=O)NC[C@H]1CN(c2ccc(N3CCOCC3)c(F)c2)C(=O)O1` [LZD, Linezolid] the MIC50 [1] was 1.13 µg/mL (≈ 3.35 µM), the “CFUs /ml (10^6) h0” value ([2]; 0.0844 µg/ml) was 81 CFUs /ml (10^6) and 100 CFUs /ml (10^6) and 98 CFUs /ml (10^6) and the “CFUs /ml (10^6) h24” value ([2]; 0.0844 µg/ml) was 135 CFUs /ml (10^6) and 147 CFUs /ml (10^6) and 127 CFUs /ml (10^6). For the same molecule, the “CFUs /ml (10^6) h72” value ([2]; 0.0844 µg/ml) was 249 CFUs /ml (10^6) and 245 CFUs /ml (10^6) and 239 CFUs /ml (10^6), the “Relative CFUs (log10) h72” value ([2]; 0.0844 µg/ml) was 0.488 log10 and 0.389 log10 and 0.387 log10 and the “CFUs /ml (10^6) h0” value ([2]; 0.844 µg/ml) was 61 CFUs /ml (10^6) and 68 CFUs /ml (10^6) and 60 CFUs /ml (10^6). The “CFUs /ml (10^6) h24” value ([2]; 0.844 µg/ml) was 63 CFUs /ml (10^6) and 74 CFUs /ml (10^6) and 92 CFUs /ml (10^6), the “CFUs /ml (10^6) h72” value ([2]; 0.844 µg/ml) was 71 CFUs /ml (10^6) and 86 CFUs /ml (10^6) and 72 CFUs /ml (10^6) and the “Relative CFUs (log10) h72” value ([2]; 0.844 µg/ml) was 0.066 log10 and 0.102 log10 and 0.079 log10.

In the case of `NNC(=O)c1ccncc1` [INH, Isoniazid], the MIC50 [1] is reported as 0.2 µg/mL (≈ 1.46 µM), the “CFUs /ml (10^6) h24” value ([2]; 0.018 µg/ml) is reported as 182 CFUs /ml (10^6) and 160 CFUs /ml (10^6) and 171 CFUs /ml (10^6) and the “CFUs /ml (10^6) h72” value ([2]; 0.018 µg/ml) is reported as 184 CFUs /ml (10^6) and 194 CFUs /ml (10^6) and 203 CFUs /ml (10^6). For the same molecule, the “CFUs /ml (10^6) h0” value ([2]; 0.18 µg/ml) was 93 CFUs /ml (10^6) and 77 CFUs /ml (10^6) and 70 CFUs /ml (10^6), the “CFUs /ml (10^6) h24” value ([2]; 0.18 µg/ml) was 60 CFUs /ml (10^6) and 90 CFUs /ml (10^6) and the “CFUs /ml (10^6) h72” value ([2]; 0.18 µg/ml) was 78 CFUs /ml (10^6) and 97 CFUs /ml (10^6) and 70 CFUs /ml (10^6). The “Relative CFUs (log10) h72” value ([2]; 0.18 µg/ml) was -0.076 log10 and 0.1 log10 and 0 log10, the “CFUs /ml (10^6) h0” value ([2]; 0.36 µg/ml) was 159 CFUs /ml (10^6) and 180 CFUs /ml (10^6) and 187 CFUs /ml (10^6) and the “CFUs /ml (10^6) h72” value ([2]; 0.36 µg/ml) was 0.1 CFUs /ml (10^6). For the same molecule, the “Relative CFUs (log10) h72” value ([2]; 0.36 µg/ml) was -3.201 log10 and -3.255 log10 and -3.272 log10, the “CFUs /ml (10^6) h0” value ([2]; 1.8 µg/ml) was 77 CFUs /ml (10^6) and 68 CFUs /ml (10^6) and 87 CFUs /ml (10^6) and the “CFUs /ml (10^6) h72” value ([2]; 1.8 µg/ml) was 0.1 CFUs /ml (10^6). The “Relative CFUs (log10) h72” value ([2]; 1.8 µg/ml) was -2.886 log10 and -2.833 log10 and -2.94 log10.

With `COc1c(N2C[C@@H]3CCCN[C@@H]3C2)c(F)cc2c(=O)c(C(=O)O)cn(C3CC3)c12` [MXF, Moxifloxacin hydrocholoride] the MIC50 [1] was 0.07 µg/mL (≈ 0.174 µM), the “CFUs /ml (10^6) h0” value ([2]; 0.075 µg/ml) was 69 CFUs /ml (10^6) and 53 CFUs /ml (10^6) and 72 CFUs /ml (10^6) and the “CFUs /ml (10^6) h24” value ([2]; 0.075 µg/ml) was 90 CFUs /ml (10^6) and 88 CFUs /ml (10^6) and 80 CFUs /ml (10^6). For the same molecule, the “CFUs /ml (10^6) h72” value ([2]; 0.075 µg/ml) was 159 CFUs /ml (10^6) and 165 CFUs /ml (10^6) and 147 CFUs /ml (10^6), the “Relative CFUs (log10) h72” value ([2]; 0.075 µg/ml) was 0.363 log10 and 0.493 log10 and 0.31 log10 and the “CFUs /ml (10^6) h0” value ([2]; 0.3 µg/ml) was 43 CFUs /ml (10^6) and 50 CFUs /ml (10^6). The “CFUs /ml (10^6) h72” value ([2]; 0.3 µg/ml) was 0.1 CFUs /ml (10^6) and the “Relative CFUs (log10) h72” value ([2]; 0.3 µg/ml) was -2.633 log10 and -2.699 log10.
